Consider two compounds from ChEMBL document CHEMBL2157973, “An efficient synthesis of 3-OBn-6β,14-epoxy-bridged opiates from naltrexone and identification of a related dual MOR inverse agonist/KOR agonist” (Bioorg Med Chem Lett, 2012).

Common to all, as to format: functional, cell-based
Test [1] deals with T1, Mu-type opioid receptor (Homo sapiens, UniProt P35372). Put plainly: Inverse agonist activity at human recombinant mu opioid receptor expressed in CHO cells after 3 hrs by [35S]GTPgammaS binding assay relative to KC-2-009.
T1 sequence (P35372 whole entry): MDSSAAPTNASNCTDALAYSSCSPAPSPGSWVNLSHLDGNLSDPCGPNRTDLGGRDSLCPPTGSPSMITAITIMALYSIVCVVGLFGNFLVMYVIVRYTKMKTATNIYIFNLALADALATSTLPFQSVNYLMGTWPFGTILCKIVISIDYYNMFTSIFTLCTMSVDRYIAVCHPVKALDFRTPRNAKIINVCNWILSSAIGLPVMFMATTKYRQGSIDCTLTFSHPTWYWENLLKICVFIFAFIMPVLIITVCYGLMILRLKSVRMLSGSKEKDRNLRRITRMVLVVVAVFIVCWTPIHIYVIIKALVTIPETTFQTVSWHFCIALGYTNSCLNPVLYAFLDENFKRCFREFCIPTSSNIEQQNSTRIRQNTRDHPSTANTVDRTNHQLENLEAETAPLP
Test [2] addresses T1, Mu-type opioid receptor. Put plainly: Inverse agonist activity at human recombinant mu opioid receptor expressed in CHO cells after 3 hrs by [35S]GTPgammaS binding assay.
For test [3], the target named is Kappa-type opioid receptor (Homo sapiens) (UniProt P41145). Put plainly: Agonist activity at human kappa opioid receptor expressed in CHO cells after 3 hrs by [35S]GTPgammaS binding assay relative to control. On the technique in general: Binding of GTPγS marks nucleotide exchange on a G protein.
Chain of Kappa-type opioid receptor (Homo sapiens) (P41145 whole entry): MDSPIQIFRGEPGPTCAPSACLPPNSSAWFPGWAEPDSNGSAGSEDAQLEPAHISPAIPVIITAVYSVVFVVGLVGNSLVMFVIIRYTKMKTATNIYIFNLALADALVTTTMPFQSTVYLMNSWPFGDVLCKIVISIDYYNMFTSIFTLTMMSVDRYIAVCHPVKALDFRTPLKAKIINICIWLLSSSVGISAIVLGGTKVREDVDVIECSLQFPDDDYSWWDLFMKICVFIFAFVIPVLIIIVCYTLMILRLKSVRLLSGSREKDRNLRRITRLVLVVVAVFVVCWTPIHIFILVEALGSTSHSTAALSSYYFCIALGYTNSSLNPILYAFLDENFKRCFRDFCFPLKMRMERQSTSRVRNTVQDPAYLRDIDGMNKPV
For test [4] the target is unchanged. Put plainly: Agonist activity at human kappa opioid receptor expressed in CHO cells after 3 hrs by [35S]GTPgammaS binding assay.

`Oc1ccc2c3c1O[C@H]1[C@H](O)CC[C@@]4(O)[C@@H](C2)N(CC2CC2)CC[C@]314`: the maximal response (Emax) in test [1] stood at 89%.
For the compound `CS(=O)(=O)O[C@@H]1CC[C@@]2(O)[C@H]3Cc4ccc(O)c5c4[C@@]2(CCN3CC2CC2)[C@H]1O5`, the half-maximal effective concentration (EC50) in test [2] came out at 2.6 nM. Also, the Emax amounted to 60.5% in test [1] and 48% in test [3]. Further, in test [4], the ED50 is 26 nM.

In general, Emax refers to the greatest response seen or fitted, relative to the assay's reference. The term EC50 denotes the concentration giving half of the maximal effect.
